Reference: US7090853B2, “Noscapine derivatives as adjuvant compositions and methods of use thereof” (Emory University, priority 1999, dated 2006)

Assays:
[1] = test system: lymphocyte cells; test: Apoptosis: oligonucleosomal DNA fragmentation, DAPI staining and nick end labeling; format: cell-based; details: 20 μM Noscapine, 0 to 24 hr
Description: Oligonucleosomal fragmentation of genomic DNA was determined according to Walton, M. I. et. al., Cancer. Res. 53, 1853 (1993). An aliquot of 3.3×10^6 cells in 10 ml medium was incubated with 20 μM Noscapine ([…] DMSO solution) for different time periods ranging from 0 to 24 hr. At the end of incubation, cells were pelleted and washed twice with ice cold PBS, and lysed in 250 μl 1% (v/v) NP 40 detergent containing 0.5 mg/ml proteinase K in PBS solution on ice for 60 min. Samples were centrifuged, and the supernatants were removed and incubated with 5 μl 10 mg/ml RNase A at 37° C. for 40 min. An aliquot of 1 ml anhydrous ethanol was added, tubes were placed at −20° C. for 20 min., then centrifuged to pellet DNA. After the samples were dry, the same amount of DNA (10 μg) was electrophoresed at 80V for 3 hr. through a 2% agarose gel containing ethidium bromide in TAB buffer. DNA bands were visualized under […]. […]
Morphological changes in the nuclear chromatin of cells undergoing apoptosis were detected by staining with 4′,6-diamidino-2-phenylindole (DAPI). […] Following 15 min. incubation at room temperature, a 10 μl aliquot was placed on a glass slide, and 400 cells per slide were scored for the incidence of apoptotic chromatin changes with a fluorescence microscope. […] After the slides were rinsed with PBS for another 3 times, coverslips were mounted and analyzed with a light microscope.

[2] = test system: OVA; test: Immune response to OVA in CFA in mice on oral noscapine; format: in vivo, B6 mice
Description: On day 0 all mice were injected with 200 μg OVA in CFA in the foot pad. Mice were bled individually on day 18 and their sera tested for antibody to OVA by ELISA (FIG. 5A). The mice were sacrificed on day 21 and their spleen cells cultured with E.G7-OVA for 6 days and their cytolytic activity measured with ^51Cr labeled cells (FIG. 5B).
The inventors believe that the damage caused to the mitotic apparatus of dividing cells must be repaired by normal cells but not the tumor cells at the tumor suppressive doses. Alternatively, the tumor suppressive effects of Noscapine may be unrelated to the anti-mitotic effect of the drug.

COc1ccc2c(c1OC)C(=O)O[C@@H]2[C@H]1c2c(cc3c(c2OC)OCO3)CCN1C [Noscapine]
DNA degradation (gel electrophoresis of fragmented genomic DNA, staining) [1]: progressive DNA degradation with increasing time of noscapine treatment | immune response to OVA in CFA ([2]; 1.5 mg noscapine/ml drinking water from day -7): no detectable adverse effect | primary antibody response ([2]; oral noscapine, ELISA day 18): did not inhibit | CTL response ([2]; oral noscapine, spleen cells day 21, 51Cr labeled cells): did not inhibit
